The record followed here is US20260315604A1, “OTUB1 Small-Molecule Binders and OTUB1-recruiting Deubiquitinase-targeting Chimeras (DUBTACs)” (ICAHN SCHOOL OF MEDICINE AT MOUNT SINAI, priority 2023, published 2026).

The target of this assay is T1, Human OTUB1 wild-type (Homo sapiens, UniProt Q96FW1).
T1 construct: His tag (N); made in house; host or cells: E. coli BL21-CodonPlus (DE3)-RIPIL
Description: Covalent modification of OTUB1 (adduct formation), mass spectrometry-based assay (OTUB1 covalent binders; selected CFTR or cGAS based bivalent compounds). The note with it: covalent adduct formation with OTUB1 protein. It counts as binding. In short, it runs like this:
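His-tagged human OTUB1 (10 μM), E. coli-expressed, incubated with compound (2500 μM) in 50 mM Tris-HCl pH 7.5, 150 mM NaCl, 0.5 mM TCEP for 1 h at room temperature. Adduct detected by intact-protein LC/ESI-TOF mass spectrometry after buffer exchange; duplicates.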

Structures are written as SMILES.

T1 sequence (Q96FW1 whole entry): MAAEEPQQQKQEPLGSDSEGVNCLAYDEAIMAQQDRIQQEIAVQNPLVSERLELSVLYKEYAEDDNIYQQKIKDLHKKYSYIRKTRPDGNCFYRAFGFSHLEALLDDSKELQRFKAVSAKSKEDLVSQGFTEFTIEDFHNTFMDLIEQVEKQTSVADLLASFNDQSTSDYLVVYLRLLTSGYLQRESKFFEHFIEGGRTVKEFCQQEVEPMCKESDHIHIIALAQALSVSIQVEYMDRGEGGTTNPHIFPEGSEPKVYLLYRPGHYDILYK

For `CN(C)C/C=C/C(=O)N1C2CC1CN(C(=O)c1ccc(C3CCN(C)C3)s1)C2` (stereo not shown) [XS197-73, (E)-4-(dimethylamino)-1-(3-(5-(1-methylpyrrolidin-3-yl)thiophene-2-carbonyl)-3,6-diazabicyclo[3.1.1]heptan-6-yl)but-2-en-1-one], the “% of OTUB1 modified” value was 90%.

In the case of `CN(C)C/C=C/C(=O)N1C2CC1CN(C(=O)c1ccc(C3CCN(C)CC3)s1)C2` [XS197-74, (E)-4-(dimethylamino)-1-(3-(5-(1-methylpiperidin-4-yl)thiophene-2-carbonyl)-3,6-diazabicyclo[3.1.1]heptan-6-yl)but-2-en-1-one], the “% of OTUB1 modified” value turned out to be 92%.

In the case of `CN(C)C/C=C/C(=O)N1C2CC1CN(C(=O)C1CN(C)C1)C2` [XS197-85, (E)-4-(dimethylamino)-1-(3-(1-methylazetidine-3-carbonyl)-3,6-diazabicyclo[3.1.1]heptan-6-yl)but-2-en-1-one], the “% of OTUB1 modified” value is given as 45%.

Consider `COCC#Cc1ccc(C(=O)N2CC3CC(C2)N3C(=O)/C=C/CN(C)C)s1` [XS197-93, (E)-4-(dimethylamino)-1-(3-(5-(3-methoxyprop-1-yn-1-yl)thiophene-2-carbonyl)-3,6-diazabicyclo[3.1.1]heptan-6-yl)but-2-en-1-one], for which the “% of OTUB1 modified” value is reported as 80%.

Turning to `CN(C)C/C=C/C(=O)N1C2CC1CN(C(=O)c1ccc(C#CCO)s1)C2` [XS197-94, (E)-4-(dimethylamino)-1-(3-(5-(3-hydroxyprop-1-yn-1-yl)thiophene-2-carbonyl)-3,6-diazabicyclo[3.1.1]heptan-6-yl)but-2-en-1-one], the “% of OTUB1 modified” value stood at 80%.

Take `CC(=O)OCC#Cc1ccc(C(=O)N2CC3CC(C2)N3C(=O)/C=C/CN(C)C)s1` [XS197-96, (E)-3-(5-(6-(4-(dimethylamino)but-2-enoyl)-3,6-diazabicyclo[3.1.1]heptane-3-carbonyl)thiophen-2-yl)prop-2-yn-1-yl acetate]: the “% of OTUB1 modified” value is on record as 45%.

On to `CC(=O)N1CC2(CC(C(=O)N3CC4CC(C3)N4C(=O)/C=C/CN(C)C)C2)C1` [XS197-133, (E)-1-(3-(2-acetyl-2-azaspiro[3.3]heptane-6-carbonyl)-3,6-diazabicyclo[3.1.1]heptan-6-yl)-4-(dimethylamino)but-2-en-1-one], for which the “% of OTUB1 modified” value is 25%.

As to `CC(=O)N1CCC(c2ccc(N3CC4CCC(C3=O)N4C(=O)/C=C/CN(C)C)s2)CC1` (stereo not shown) [XS197-145, (E)-3-(5-(1-acetylpiperidin-4-yl)thiophen-2-yl)-8-(4-(dimethylamino)but-2-enoyl)-3,8-diazabicyclo[3.2.1]octan-2-one], the “% of OTUB1 modified” value was 90%.

On to `CC(=O)N1CCC2(CC1)CC(C(=O)N1CC3CC(C1)N3C(=O)/C=C/CN(C)C)C2` [XS197-176, (E)-1-(3-(7-acetyl-7-azaspiro[3.5]nonane-2-carbonyl)-3,6-diazabicyclo[3.1.1]heptan-6-yl)-4-(dimethylamino)but-2-en-1-one], for which the “% of OTUB1 modified” value is reported as 30%.

On to `Cc1ccc(N2CC3CCC(C2=O)N3C(=O)C#CCN(C)C)s1` (stereo not shown) [XS197-185, 8-(4-(dimethylamino)but-2-ynoyl)-3-(5-methylthiophen-2-yl)-3,8-diazabicyclo[3.2.1]octan-2-one], for which the “% of OTUB1 modified” value is given as 95%.

As to `CN(C)C/C=C/C(=O)N1Cc2ccccc2C1` [XS197-186, (E)-4-(dimethylamino)-1-(isoindolin-2-yl)but-2-en-1-one], the “% of OTUB1 modified” value is given as 15%.

In the case of `Cc1ccc(NC(=O)C2(C)CN(C(=O)/C=C/CN(C)C)C2)s1` [XS209-21, (E)-1-(4-(dimethylamino)but-2-enoyl)-3-methyl-N-(5-methylthiophen-2-yl)azetidine-3-carboxamide], the “% of OTUB1 modified” value was found to be 22%.

Take `Cc1ccc(NC(=O)C2(O)CN(C(=O)/C=C/CN(C)C)C2)s1` [XS209-22, (E)-1-(4-(dimethylamino)but-2-enoyl)-3-hydroxy-N-(5-methylthiophen-2-yl)azetidine-3-carboxamide]: the “% of OTUB1 modified” value stood at 47%.

On to `Cc1cnc(NC(=O)C2(C)CN(C(=O)/C=C/CN(C)C)C2)o1` [XS209-23, (E)-1-(4-(dimethylamino)but-2-enoyl)-3-methyl-N-(5-methyloxazol-2-yl)azetidine-3-carboxamide], for which the “% of OTUB1 modified” value stood at 10%.

As for `COc1ccc2c(c1)CN(C(=O)/C=C/CN(C)C)C2` [XS209-25, (E)-4-(dimethylamino)-1-(5-methoxyisoindolin-2-yl)but-2-en-1-one], the “% of OTUB1 modified” value is reported as 5%.

As to `Cc1ccc(C(=O)N2CC3CC(C2)N3C(=O)C#CCN(C)C)s1` [XS209-26, 4-(dimethylamino)-1-(3-(5-methylthiophene-2-carbonyl)-3,6-diazabicyclo[3.1.1]heptan-6-yl)but-2-yn-1-one], the “% of OTUB1 modified” value came to 98%.

With `CCC(=O)N1CC2CC(C1)N2C(=O)/C=C/CN(C)C` [XS209-28, (E)-4-(dimethylamino)-1-(3-propionyl-3,6-diazabicyclo[3.1.1]heptan-6-yl)but-2-en-1-one], the “% of OTUB1 modified” value is reported as 25%.

Consider `CN(C)C/C=C/C(=O)N1C2CCC1C(=O)N(C1=CCCCC1)C2` (stereo not shown) [XS209-30, (E)-3-(cyclohex-1-en-1-yl)-8-(4-(dimethylamino)but-2-enoyl)-3,8-diazabicyclo[3.2.1]octan-2-one], for which the “% of OTUB1 modified” value came out at 75%.

Regarding `Cc1cnc(NC(=O)C2(C)CN(C(=O)/C=C/CN(C)C)C2)s1` [XS209-38, (E)-1-(4-(dimethylamino)but-2-enoyl)-3-methyl-N-(5-methylthiazol-2-yl)azetidine-3-carboxamide], the “% of OTUB1 modified” value is given as 20%.

As for `Cc1cnc(NC(=O)C2(O)CN(C(=O)/C=C/CN(C)C)C2)s1` [XS209-39, (E)-1-(4-(dimethylamino)but-2-enoyl)-3-hydroxy-N-(5-methylthiazol-2-yl)azetidine-3-carboxamide], the “% of OTUB1 modified” value was 40%.

On to `CCCC(=O)N1CC2CC(C1)N2C(=O)/C=C/CN(C)C` [XS209-40, (E)-1-(3-butyryl-3,6-diazabicyclo[3.1.1]heptan-6-yl)-4-(dimethylamino)but-2-en-1-one], for which the “% of OTUB1 modified” value is 60%.

With `CC(=O)N1CCC2(CCC(C(=O)N3CC4CC(C3)N4C(=O)/C=C/CN(C)C)CC2)C1` (stereo not shown) [XS209-53, (E)-1-(3-(2-acetyl-2-azaspiro[4.5]decane-8-carbonyl)-3,6-diazabicyclo[3.1.1]heptan-6-yl)-4-(dimethylamino)but-2-en-1-one], the “% of OTUB1 modified” value came out at 40%.

Take `CC(=O)N1CC2(CCC(C(=O)N3CC4CC(C3)N4C(=O)/C=C/CN(C)C)CC2)C1` [XS209-54, (E)-1-(3-(2-acetyl-2-azaspiro[3.5]nonane-7-carbonyl)-3,6-diazabicyclo[3.1.1]heptan-6-yl)-4-(dimethylamino)but-2-en-1-one]: the “% of OTUB1 modified” value amounted to 35%.

Consider `Cc1cnc(C(=O)N2CC3CC(C2)N3C(=O)/C=C/CN(C)C)s1` [XS209-65, (E)-4-(dimethylamino)-1-(3-(5-methylthiazole-2-carbonyl)-3,6-diazabicyclo[3.1.1]heptan-6-yl)but-2-en-1-one], for which the “% of OTUB1 modified” value is on record as 80%.

Regarding `Cc1ccc(N2CC3CCC(C2=O)N3C(=O)C#CC(C)(C)N(C)C)s1` (stereo not shown) [XS209-74, 8-(4-(dimethylamino)-4-methylpent-2-ynoyl)-3-(5-methylthiophen-2-yl)-3,8-diazabicyclo[3.2.1]octan-2-one], the “% of OTUB1 modified” value was 98%.
